The source made the active and inactive calls.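 The calls were made as follows: active = maximal inhibition of the USP30 enzyme reaching 30% or more across the dose series; inactive = the rest.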

The test addresses Ubiquitin carboxyl-terminal hydrolase 30 (Homo sapiens) (UniProt Q70CQ3). As to the kind of experiment: ubiquitin-specific protease 30 DUB inhibitors, concentration-effect, biochemical, validation of primary actives (AID 1645865). Particulars: purified USP30, Ub-rhodamine cleavage, fluorescence, 2 h.

Ubiquitin carboxyl-terminal hydrolase 30 (Homo sapiens), sequence (Q70CQ3 whole entry, looked up): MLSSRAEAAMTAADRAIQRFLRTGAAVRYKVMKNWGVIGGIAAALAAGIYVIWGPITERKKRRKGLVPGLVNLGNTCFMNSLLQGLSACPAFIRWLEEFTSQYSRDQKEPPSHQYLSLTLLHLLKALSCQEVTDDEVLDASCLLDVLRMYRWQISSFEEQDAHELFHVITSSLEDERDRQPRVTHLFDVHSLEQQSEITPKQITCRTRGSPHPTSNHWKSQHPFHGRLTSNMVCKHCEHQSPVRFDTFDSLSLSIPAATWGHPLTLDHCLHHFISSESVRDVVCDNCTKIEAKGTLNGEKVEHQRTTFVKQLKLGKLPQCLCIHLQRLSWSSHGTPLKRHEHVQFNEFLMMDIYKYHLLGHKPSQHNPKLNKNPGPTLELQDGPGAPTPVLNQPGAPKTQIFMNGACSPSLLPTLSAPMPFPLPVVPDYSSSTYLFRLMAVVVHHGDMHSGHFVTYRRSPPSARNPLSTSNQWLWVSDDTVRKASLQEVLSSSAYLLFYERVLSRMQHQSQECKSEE

For `COCC(C)Nc1ncc(-c2cnccn2)c(-c2ccc(C)s2)n1` (centres undefined), the IC50 was > 50 µM (inactive).

As to `Fc1cccc(Cn2cc(-c3noc(-c4cccnc4)n3)nn2)c1`, the IC50 was 26.4 µM. As to `O=C(COc1ccc2c(c1)CCC2)Nc1ccc2c(c1)CCC2`, the IC50 was 26.3 µM. For `CC(C)Cc1cc(-c2nnc3sc(-c4ccco4)nn23)n[nH]1`, the IC50 is > 50 µM (inactive). For `CC(C)N1C[C@@H]2C[C@H](NS(=O)(=O)c3cccc(C#N)c3)CN2Cc2ccccc21` the value was > 50 µM (inactive); for `Cc1ccc(CN2CCCn3nc(C(=O)NCc4ccccc4C)cc3C2=O)cc1`, 31.5 µM. For the compound `O=C(/C=C/C=C/C=C/C1CCCCC1)NC1=C[C@@](O)(/C=C/C=C/C=C/C(=O)NC2=C(O)CCC2=O)[C@@H]2O[C@@H]2C1=O`, the IC50 was > 50 µM (inactive). For `NS(=O)(=O)c1ccc(Cl)c(C(=O)OCc2csc(Nc3ccccc3)n2)c1` the value was > 50 µM (inactive); for `CCN(C(=O)c1cc2c(Cl)nc3ccccc3c2s1)c1ccccc1F`, > 50 µM (inactive); for `O=C(OCc1ccc(Br)cc1)c1ccc2ccccc2n1`, > 50 µM (inactive). On to `COc1ccc(C(=O)Nc2n[nH]c(C)c2-c2cccc(C)c2)c(OC)c1`, for which the IC50 was 2.31 µM. For `CC1(C)C[C@@H](O)[C@]2(C)CC[C@]3(C)C(=CCC4[C@@]5(C)CC[C@H](O)[C@](C)(CO)[C@@H]5CC[C@]43C)[C@@H]2C1` (some centres undefined) the value was 3.18 µM. On to `COc1cccc(NC(=O)C2C3C=CC4(O3)C2C(=O)N(CCc2ccccc2Cl)C4C(=O)NC2CCCCC2)c1` (centres undefined), for which the IC50 is 41.2 µM. For `COc1ccc(C(=O)CSc2nnc(-c3cccnc3)n2-c2ccccc2)cc1` the value was > 50 µM (inactive). In the case of `COc1ccc(OC)c2c(C)cc(N3CCN(S(=O)(=O)c4ccc5c(c4)CCCN5S(C)(=O)=O)CC3)nc12`, the IC50 is 20.9 µM. In the case of `CCOc1ccccc1NC(=O)Cn1c(=O)n(CCCC(=O)NCc2ccc(C)cc2)c(=O)c2sccc21`, the IC50 is 2.53 µM. The figure for `Cc1ccc(C)c(Cn2nnc3c(=O)[nH]c(C4CCN(S(=O)(=O)c5ccc(S(=O)(=O)NC6CC6)cc5)CC4)nc32)c1` is 30.4 µM. The figure for `Cc1ncc(CO)c2c1Oc1nc(-c3cccc(Cl)c3)nc(SCC(=O)N3CCCCC3)c1C2` is > 50 µM (inactive).

Turning to `CC(=O)Nc1ccc(NC(=O)c2cc(-c3cc(C)cc(C)c3O)n[nH]2)cc1`, the IC50 is 12 µM. Take `NC(=O)Cn1c(=O)n(Cc2ccc(C(=O)NC3CCCC3)cc2)c(=O)c2ccccc21`: the IC50 was > 50 µM (inactive). Consider `O=C(O)C1CCN(Cc2c(-c3ccco3)nc3ccc(Cl)cn23)CC1`, for which the IC50 is > 50 µM (inactive). With `CCc1cc2c(=O)[nH]c(Cc3ccc(OC)cc3)nc2s1`, the IC50 was 40.3 µM. For `Cc1ccc2c(c1)N(C)C(=O)c1cc(NC(=O)c3ccc(F)cc3)ccc1O2` the value was 2.71 µM; for `CCN1CCN(C(=O)CCCN(c2ccccc2)S(C)(=O)=O)CC1`, > 50 µM (inactive). Consider `Cc1noc(-c2ccc(N3CCCC(C(=O)NCc4ccc(F)cc4)C3)nc2)n1` (centres undefined), for which the IC50 is 14.6 µM. For `COc1cc(Cl)ccc1C(=O)Nc1cccc(-n2cnnn2)c1C` the value was 10.2 µM; for `O=C(Cn1ncc2c(N3CCCCCC3)ncnc21)NCc1ccccc1`, > 50 µM (inactive); for `CCS(=O)(=O)c1ccccc1C(=O)Nc1ccc2sc(C)nc2c1`, > 50 µM (inactive).

Regarding `COc1ccccc1CNC(=O)Nc1cccc2ccccc12`, the half-inhibitory concentration (IC50) was 25.9 µM.

Take `Cc1cc(=O)n(CC(=O)Nc2ccccc2F)c(Nc2ccc(F)cc2)n1`: the IC50 was 14.2 µM.

As to `O=C(NCc1ccc(F)cc1)c1cc(-n2cnnn2)ccc1Cl`, the IC50 is 21.3 µM. The figure for `O=C(Cn1cnc2c(oc3ccccc32)c1=O)NCc1ccccc1Cl` is 35.9 µM; for `CNC(=O)c1c2n(c3ncccc13)CCN(S(=O)(=O)c1ccc(-c3ccccc3)cc1)C2` it is 3.95 µM; for `CSc1ccccc1C(=O)Nc1sc2c(c1C(N)=O)CCC(C)C2` (centres undefined) it is 2.15 µM.

Take `O=C(NC1CC1)c1ccnn1-c1ccc2ccc(-c3ccncc3)cn12`: the IC50 is > 50 µM (inactive).

As for `O=C(CC1C(=O)N(Cc2cccnc2)c2nc3ccccc3n21)Nc1cccc2ccccc12` (centres undefined), the IC50 was > 50 µM (inactive). In the case of `Cc1cc(N2CCOCC2)nc2ccc(NC(=O)CCC(=O)Nc3ccc(F)cc3)cc12`, the IC50 was 10.3 µM. For `Cc1ccc(CNC(=O)c2cccc(N3C(=O)N4CCc5c([nH]c6ccccc56)[C@@]4(C)C3=O)c2)cc1` the value was 15.3 µM; for `COc1ccccc1NC(=O)Cn1cc(C(=O)c2ccc(C)cc2)c(=O)c2ccccc21`, 22.9 µM.

With `CCN(CC)c1cc(C)c2cc(NC(=O)c3ccncc3)ccc2n1`, the IC50 was > 50 µM (inactive). For `CCOc1ccccc1C(=O)Nc1ccc2c(c1)Sc1ncccc1C(=O)N2C` the value was > 50 µM (inactive); for `C[C@@H]1O[C@@H](O[C@H]2[C@H](O[C@H]3[C@H](O[C@H]4CC[C@@]5(C)[C@@H](CC[C@]6(C)[C@@H]5CC=C5[C@@H]7CC(C)(C)CC(=O)[C@]7(C)CC[C@]56C)[C@@]4(C)CO)O[C@H](C(=O)O)[C@@H](O)[C@@H]3O)OC[C@@H](O)[C@@H]2O)[C@H](O)[C@H](O)[C@H]1O`, > 50 µM (inactive). The figure for `Cc1nc2cc(NC(=O)C3CN(C(=O)c4cnccn4)C3)ccc2s1` is > 50 µM (inactive); for `Cc1ccc2c(Nc3ccc(CC(=O)O)cc3)c(C(=O)N3CCCC3)cnc2n1` it is > 50 µM (inactive); for `Cc1sc(-c2ccc(Cl)nc2)nc1OC(=O)c1ccc(F)cc1F` it is 8.06 µM.

Consider `Cc1cc(O)c(Oc2cc(C)cc(O)c2O)c(O)c1`, for which the IC50 is 33.1 µM. The figure for `O=C(NCc1ccc2c(c1)OCO2)c1nc(-c2ccccc2)n(-c2ccccc2)n1` is > 50 µM (inactive); for `COc1cccc(NC(=O)c2cnc3c(c2)c(=O)n(C)c(=O)n3C)c1` it is 2.05 µM. The figure for `C[C@@H](C(=O)NCc1ccc(F)cc1)N1C(=O)N2CCc3c([nH]c4ccccc34)[C@@]2(C)C1=O` is 4.05 µM; for `Cc1cc(NC(=O)Cn2c(=O)n(CCCCC(=O)NCc3ccco3)c(=O)c3ccccc32)ccc1Br` it is 2.09 µM. For `COc1ccc(NC(=O)c2nc3n(n2)-c2ccccc2S(=O)(=O)N3)cn1` the value was > 50 µM (inactive); for `CNS(=O)(=O)c1ccc(CNC(=O)c2cc(-c3ccc(C)cc3)no2)cc1`, 18 µM. `O=C(Cn1c(=O)n(CCC(=O)N2CC=C(c3ccccc3)CC2)c(=O)c2ccccc21)NCc1ccco1`: the IC50 was > 50 µM (inactive). For `Cc1ncncc1C(=O)N1CCCC(C)(c2ncc(Cc3cccc(F)c3)o2)C1` (centres undefined) the value was > 50 µM (inactive). For the compound `O=C(Cn1cnc2c(cnn2-c2ccc(Cl)cc2)c1=O)NCc1ccccc1Cl`, the IC50 is 2.33 µM. For `Cc1ccc(OCCn2c(=N)n(C(C)C)c3ccccc32)cc1` the value was 35.3 µM; for `Cc1ccc(CNC(=O)CCCn2c(=O)c3sccc3n(CC(=O)OCc3ccccc3)c2=O)cc1`, 2 µM. The figure for `CC(C)(C)N=C1Nc2ncccc2NC12CCCN(C(=O)c1ccccc1)C2` (centres undefined) is > 50 µM (inactive); for `O=c1ncn(Cc2ccc3c(c2)OCO3)cc1-c1ncc(C(F)(F)F)cc1Cl` it is 48.2 µM; for `O=C(Cc1cccc2ccccc12)Nc1nc2ccc(F)cc2s1` it is 45.4 µM.

On to `O=C(Cc1nnc2c(-c3nc(C4CC4)no3)cccn12)Nc1ccccc1`, for which the IC50 was 26.8 µM. For `COc1ccc(/C=C/C(=O)Nc2c3c(nc4c2CCC4)CCCC3)cc1` the value was 18.5 µM. The figure for `O=C(Nc1cccc(C(F)(F)F)c1)c1cc2c(s1)-c1ccccc1OC2` is 2.13 µM; for `CCC(C)NC(=O)Cn1c(=O)n(-c2ccccc2)c(=O)c2ccc(C(=O)NCc3ccco3)cc21` (centres undefined) it is 28.5 µM; for `CN(C)c1cc(-n2cnc(C(=O)NCc3ccccc3Cl)c2)ncn1` it is 37.8 µM.

Regarding `CCc1ccc(NC(=O)COc2cccc(-n3cnnn3)c2)cc1`, the half-inhibitory concentration (IC50) was 26.6 µM. Consider `O=C(COc1ncnc2ccccc12)Nc1ccc2c(c1)OC1(CCCC1)O2`, for which the IC50 is 42.2 µM. The figure for `O=C(OCc1cccc(Cl)c1)c1ccc2ccccc2n1` is > 50 µM (inactive). For `O=[N+]([O-])c1cccc(CSc2nnc(/C=C/c3ccccc3)o2)c1` the value was > 50 µM (inactive); for `CCCc1nc2sc3c(NC4CCCCC4)ncnc3c2c2c1CCC2`, > 50 µM (inactive).

Regarding `CCn1c(COc2cccc(C(F)(F)F)c2)nnc1SCc1ccc(Cl)cc1`, the IC50 is 15.9 µM. The figure for `CC(=O)Nc1cccc(NC(=O)COc2cccc3ccc(N4CCCC4)nc23)c1` is > 50 µM (inactive); for `Cc1ccc(C(=O)NCc2ccc(C(=O)Nc3cccc(C)c3)o2)cc1` it is 26.9 µM; for `O=C(Cc1ccc(Cl)c(Cl)c1)OCC(=O)c1c[nH]c2ccccc12` it is > 50 µM (inactive). With `O=S(=O)(c1ccccc1)N1CCN2Cc3ccccc3N(Cc3ccccc3)CC2C1` (centres undefined), the IC50 is > 50 µM (inactive). For `O=C(Cc1ccccc1F)Nc1nc(-c2ccco2)c(-c2ccco2)s1` the value was > 50 µM (inactive); for `COc1ccc(C2SCC(=O)Nc3c2c(=O)[nH]n3C2CCCCC2)cc1` (centres undefined), 30.1 µM; for `CC(C)(C)c1cc(C[C@@H]2C[C@H](NC(=O)N3CCOCC3)C2(C)C)no1`, 22.2 µM. On to `CCn1cc(-c2nc(-c3ccccc3)no2)c(=O)c2cc(F)ccc21`, for which the IC50 is 2.18 µM. For `COc1ccc(-c2ccnc(-c3ccc(OCc4cccc(F)c4)cc3)n2)cc1` the value was 38.2 µM. The figure for `COc1ccc2c(c1)CCc1c(C(=O)NCc3cccnc3)noc1-2` is 19.4 µM; for `O=C1N[C@@H](Cc2ccccc2)C(=O)N2[C@H]3Nc4ccccc4[C@@]3([C@]34C[C@H]5C(=O)N[C@@H](Cc6ccccc6)C(=O)N5[C@H]3Nc3ccccc34)C[C@@H]12` it is 40.3 µM. Turning to `O=C(COc1ccc(S(=O)(=O)N2CCOCC2)cc1)N1CCC(Cc2ccccc2)CC1`, the IC50 is 49.5 µM. For `Cc1cc(C)c(NC(=O)CSc2nc3nccnc3c(=O)n2Cc2ccccc2Cl)c(C)c1` the value was 3.88 µM.

A word on the IC50: it is the concentration needed to halve the response being measured.
